Laboratory results published in patent US20140171510A1, “HO[…] AND/OR CONJUGATES OF AMPHETAMINE AND OTHER […] PROCESSES FOR MAKING AND USING THE SAME” (priority 2011, published 2014).

Tests used:
[1] = pH of the prodrug in deionized water at various concentrations; assay type: physicochemical
Description: In a preferred embodiment, the homoarginine amphetamine prodrug comprises a dihydrochloride salt of homoarginine amphetamine. The pH of this prodrug in deionized water at various concentrations is as follows: […]

[2] = Single-dose crossover oral PK study of hArg-Amp-2HCl and Lys-Amp in humans (Example 10); details: for AUC0-24 h of d-amphetamine: fasted, Vyvanse 30 mg (d-amphetamine equivalent dosages); for plasma concentrations of intact prodrug: 25 mg hArg-Amp-2HCl or same molar dose, lower limit of quantitation 1.00 ng/mL
[3] = Oral PK of hArg-Amp-2HCl and Lys-Amp in rats (Example 9); details: for AUC0-24 h of d-amphetamine: equimolar doses (hArg-Amp-2HCl […], Lys-Amp 5.05 mg/kg)
[4] = Average results of oral studies in rats (Table 3); assay type: in vivo; details: for % Tmax: average of oral studies in rats, relative to Lys-Amp
[5] = Oral PK of hArg-Amp-2HCl and Lys-Amp in dogs (Example 9)
[6] = Intranasal study in rats, plasma d-amphetamine by ELISA (Example 7); details: for % Tmax: relative to d-amp
[7] = Oral gavage PK study of hArg-Amp vs Lys-Amp in rats, plasma d-amphetamine by ELISA (Example 6); details: relative to Lys-Amp
[8] = Intravenous study in rats, plasma d-amphetamine by ELISA (Example 8); details: for % Tmax: relative to d-amp; for Tmax: d-amphetamine in plasma, […] equivalent
[9] = Parenteral (intranasal, intravenous) administration in rats, release of amphetamine (Example 1); details: parental routes (intranasal, intravenous)
[10] = oral solution, hArg-Amp-2HCl 25 mg
[11] = oral solution, hArg-Amp-2HCl 25 mg, Vyvanse 30 mg
[12] = oral solution, equimolar doses (4.20 and 5.05 mg/kg)
[13] = equimolar doses (1.5 and 1.8 mg/kg)

| Compound | AUC0-24 h of d-amphetamine [2, 10] [ng·h/mL] | Cmax of d-amphetamine [2, 11] [ng/mL] | Tmax of intact prodrug [2, 11] [min] | AUC0-24 h of intact prodrug [3, 12] [ng·h/mL] | Cmax of d-amphetamine [3, 12] [ng/mL] | Cmax of intact prodrug [3, 12] [ng/mL] | AUC0-24 h of d-amphetamine ([3]; oral solution) [ng·h/mL] | % Tmax [4] | % Tmax [6] [%] | % Tmax [7] [%] | % Tmax [8] [%] | Tmax [8] [m] | also measured |
| --- | --- | --- | --- | --- | --- | --- | --- | --- | --- | --- | --- | --- | --- |
| C[C@@H](Cc1ccccc1)NC(=O)[C@@H](N)CCCCN=C(N)N.Cl.Cl [hArg-Amp-2HCl, l-homoarginine-d-amphetamine dihydrochloride] | 282.7 | 20.7 | 0 | 1.8 | 43.2 | 3.1 | 447.2 |  |  |  |  |  | pH ([1]; 0.1 mg/mL (0.3 mM) in deionized water): 6.15 ± 0.1; pH ([1]; 1.0 mg/mL ([…]) in deionized water): 5.40 ± 0.1; pH ([1]; 10 mg/mL (26.4 mM) in deionized water): 4.35 ± 0.1; pH ([1]; 100 mg/mL (264.3 mM) in deionized water): 3.30 ± 0.1; Tmax of d-amphetamine, hArg-Amp-2HCl/Lys-Amp ([2]; oral): 110.5%; Tmax of intact prodrug, hArg-Amp-2HCl/Lys-Amp ([2]; oral): 0%; Tmax of d-amphetamine, hArg-Amp-2HCl/Lys-Amp ([3]; oral): 150.0%; Tmax of intact prodrug, hArg-Amp-2HCl/Lys-Amp ([3]; oral): 100.0%^; Tmax of intact prodrug [3, 12]: 15 min |
| l-lysine-d-amphetamine [Lys-Amp, reference compound] | 421.9 | 30.0 | 36.6 | 74.9 | 71.5 | 90.2 | 596.4 | 100% | 3600 | 100 | 100 |  | AUC0-24 h of intact prodrug [5, 13]: 285.8 ng·h/mL; Cmax of d-amphetamine [5, 13]: 95.4 ng/mL; Cmax of intact prodrug [5, 13]: 305.5 ng/mL; AUC0-24 h of d-amphetamine ([5]; equimolar doses (hArg-Amp-2HCl […], Lys-Amp 1.8 mg/kg)): 775.0 ng·h/mL; AUC0-24 h of intact prodrug [2, 11]: 19.4 ng·h/mL; Cmax of intact prodrug [2, 11]: 18.1 ng/mL |
| l-homoarginine-d-amphetamine [hArg-Amp] |  |  |  |  |  |  |  | 200-400% | 600 | 133 | 100 | 5 | Tmax ([4]; average of oral studies in rats (n = 30 per compound)): 120 to 240 min; release of amphetamine [9]: < 25%; Tmax of d-amphetamine [2, 11]: approximately three hours; plasma concentrations of intact prodrug ([2]; oral, listed as homoarginine amphetamine prodrug): ≤ 1.00 ng/mL; plasma concentrations of intact prodrug ([2]; oral, listed as homoarginine-amphetamine prodrug): below the detectable limit; period over which amphetamine is eliminated after the maximum plasma concentration ([2]; single oral dose of 25 mg): about 45 hours |
| C[C@H](N)Cc1ccccc1 [d-amp, d-amphetamine] |  |  |  |  |  |  |  |  | 100 |  | 100 | 5 | Tmax ([6]; d-amphetamine in plasma, […] equivalent, given in minutes): 5 m |
